These results are taken from patent US20100160286A1, “HETEROARYLCARBAMOYLBENZENE DERIVATIVES FOR THE TREATMENT OF DIABETES” (ASTRAZENECA UK LIMITED AB, priority 2005, published 2010).

In experiment [1] the target is T1, recombinant human pancreatic GLK (Homo sapiens, UniProt P35557).
T1 sequence (P35557 1-465): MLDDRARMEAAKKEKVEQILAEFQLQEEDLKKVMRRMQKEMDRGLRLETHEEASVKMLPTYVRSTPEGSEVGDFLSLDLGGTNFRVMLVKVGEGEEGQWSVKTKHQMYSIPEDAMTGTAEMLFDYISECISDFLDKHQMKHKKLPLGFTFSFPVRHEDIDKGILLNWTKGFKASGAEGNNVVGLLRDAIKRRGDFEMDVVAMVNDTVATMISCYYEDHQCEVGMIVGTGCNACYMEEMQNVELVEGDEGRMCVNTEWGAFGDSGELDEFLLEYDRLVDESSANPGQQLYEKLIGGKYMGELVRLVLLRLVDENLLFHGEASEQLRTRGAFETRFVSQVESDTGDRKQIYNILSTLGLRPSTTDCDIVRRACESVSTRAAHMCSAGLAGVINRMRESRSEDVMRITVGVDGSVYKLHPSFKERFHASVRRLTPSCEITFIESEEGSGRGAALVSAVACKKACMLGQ
The experiment in a line: biochemical.

Another experiment relates to Zucker obese fa/fa rats. Nature of the experiment: Oral Glucose Tolerance Test. To be noted: 10 mg/kg; given orally 120 minutes before oral glucose 2 g/kg; Zucker obese fa/fa rats on high fat diet. The format is in vivo, rat. The protocol:
(2) Oral Glucose Tolerance Test (OGIT) Oral glucose tolerance tests were done on conscious Zucker obese fa/fa rats (age 12-13 weeks or older) fed a high fat diet (45% kcal fat) for at least two weeks prior to experimentation. The animals were fasted for 2 hours before use for experiments. A test compound or a vehicle was given orally 120 minutes before oral administration of a glucose solution at a dose of 2 g/kg body weight. Blood glucose levels were measured using a Accucheck glucometer from tail bled samples taken at different time points before and after administration of glucose (time course of […]). A time curve of the blood glucose levels was generated and the area-under-the-curve (AUC) for 120 minutes was calculated (the time of glucose administration being time zero). Percent reduction in glucose excursion was determined using the AUC in the vehicle-control group as zero percent reduction.

Structures are written as SMILES.

Broadly, the EC50 is the midpoint of the concentration-response curve. Take `C#C[C@H](C)Oc1cc(Oc2ccc(C(=O)N3CCC3)cc2)cc(C(=O)Nc2ccn(C)n2)c1` [Example 7, 3-{[4-(Azetidin-1-ylcarbonyl)phenyl]oxy}-5-{[(15)-1-methylprop-2-yn-1-yl]oxy}-N-(1-methyl-1H-pyrazol-3-yl)benzamide]: the EC50 in experiment [1] is 60 nM.

In the case of `Cn1ccc(NC(=O)c2cc(Oc3ccc(C(=O)N4CCC4)cc3)cc(O[C@H]3CCOC3)c2)n1` [Example 2, 3-{[4-(Azetidin-1-ylcarbonyl)phenyl]oxy}-N-(1-methyl-1H-pyrazol-3-yl)-5-[(3S)-tetrahydrofuran-3-yloxy]benzamide], in the experiment on Zucker obese fa/fa rats, the “effect in the Oral Glucose Tolerance Test (percent reduction in glucose excursion, AUC vs vehicle control)” value amounted to 42%.
